Laboratory results published in paper PMC5077133, “Towards Development of Small Molecule Lipid II Inhibitors as Novel Antibiotics” (PLoS ONE, 2016).

Tests used:
[1] = Lipid II binding by Surface Plasmon Resonance; details: SPR, immobilized 3-Lipid II, 25°C
Procedure: Short-chain water-soluble Lipid II containing a lipid tail of three isoprene units was generated and purified essentially as described. Typically, M. flavus vesicles (120 μmol lipid-Pi) were incubated together with 500 μmol UDP-GlcNAc, 500 μmol UDP-MurNAC-pentapeptide and 400 μmol farnesyl phosphate in 100 mM Tris-HCl pH 8.0, 5 mM MgCl2. The incubation lasted two hours at room temperature for 3-P. The synthesis of 3-Lipid II was followed using RP-8 reversed phase TLC (Merck) developed in 75% methanol. For purification, the membranes were removed by centrifugation at 40,000 x g and the supernatant was collected and loaded on a C18 HPLC column and eluted with a linear gradient from 50 mM ammonium bicarbonate to 100% methanol in 30 minutes. Farnesyl-Lipid II (3-Lipid II) eluted at approximately 60% methanol. Its identity was confirmed by mass spectroscopy. Surface Plasmon Resonance binding experiments were carried out on a BIAcore T100 system (BIAcore Inc., Piscataway, NY) at 25°C. The assay buffer was 10 mM HEPES, 150 mM NaCl, 0.05% surfactant P20, pH 7.4 (± 3 mM EDTA) supplemented with 10% DMSO. 3-Lipid II (50 RUs) was immobilized on CM5 sensor chips using the amine-coupling chemistry recommended by the manufacturer. For initial determination of binding, compounds were introduced into the flow-cells (30 μl/min) in the running buffer at 10 μM. Resonance signals were corrected for nonspecific binding by subtracting the background of the control flow-cell. After each analysis, the sensor chip surfaces were regenerated with 50 mM NaOH for 30 s at a flow rate 100 μl/min, and equilibrated with the buffer prior to next injection. For binding kinetics studies, binding isotherms were analyzed with manufacturer-supplied software for BIAcore T100.

HeLa cells = experiment: Cytotoxicity against mammalian cells (MTS assay); assay type: cell-based
Procedure: The cytotoxicity concentration of antibacterial compounds that produces half maximal decrease in viability (CC50) against mammalian cells (HeLa, ATCC CCL-2.2) was determined as described. The effect of compounds on HeLa cell viability was assessed in triplicate by measuring the mitochondrial activity using MTS assays according to the manufacturer’s instructions (Cell Titer 96 proliferation assay, Promega). The cells were incubated for 72 hours in RPMI1640 medium containing the compounds at final concentrations ranging from 64 to 0.125 μg/ml. CC50 was determined using a standard curve of serially diluted untreated cells in each experiment.

A. baumanii ATCC 19606 = experiment: Antibacterial activity (MIC, broth dilution); assay type: cell-based, Acinetobacter baumanii; details: CLSI, in µg/mL
From the text: Staphylococcus aureus ATCC 29213, Escherichia coli ATCC 25922, Enterococcus faecalis ATCC 29212, Streptococcus pneumonia ATCC 49619 and Acinetobacter baumanii ATCC 19606 were obtained from Microbiologics (St. Cloud, MN). E. faecalis ATCC 51575, ATCC 51299 and REMEL C99707 and E. faecium ATCC 51559 (MDR), REMEL IH79985 and REMEL C110914 were generously provided by the Laboratory of Pathology, University of Maryland Baltimore School of Medicine. Unless stated otherwise, chemicals and reagents were purchased from Sigma.
(§1) Determination of the Minimal Inhibitory Concentrations (MIC) by dilution was carried out by broth dilution according to CLSI standards.

E. cloacae ATCC 13047 = experiment: Antibacterial activity (MIC, broth dilution); assay type: cell-based; details: CLSI
Procedure: as §1

[2] = tested on: K. pneumoniae NR-15410 (KPC); experiment: Antibacterial activity (MIC, broth dilution); assay type: cell-based; details: CLSI
Procedure: as §1

E. aerogenes ATCC 13048 = experiment: Antibacterial activity (MIC, broth dilution); assay type: cell-based; details: CLSI
Procedure: as §1

E. faecium F118 (VRE) = experiment: Antibacterial activity (MIC, broth dilution); assay type: cell-based; details: CLSI, in µg/mL
Procedure: as §1

[3] = tested on: K. pneumoniae NR-15411 (KPC); experiment: Antibacterial activity (MIC, broth dilution); assay type: cell-based; details: CLSI
Procedure: as §1

P. aeruginosa PA01 = experiment: Antibacterial activity (MIC, broth dilution); assay type: cell-based; details: CLSI
Procedure: as §1

P. aeruginosa X13273 = experiment: Antibacterial activity (MIC, broth dilution); assay type: cell-based; details: CLSI, in µg/mL
Procedure: as §1

S. aureus MRSA 1094 = experiment: Antibacterial activity (MIC, broth dilution); assay type: cell-based; details: CLSI
Procedure: as §1

P. aeruginosa ATCC 27853 = experiment: Antibacterial activity (MIC, broth dilution); assay type: cell-based; details: CLSI
Procedure: as §1

E. faecium EF1509 (VRE) = experiment: Antibacterial activity (MIC, broth dilution); assay type: cell-based; details: CLSI, in µg/mL
Procedure: as §1

[4] = tested on: S. aureus HFH-30123 (MRSA); experiment: Antibacterial activity (MIC, broth dilution); assay type: cell-based; details: CLSI
Procedure: as §1

| Compound | Kd [1] | Antibacterial activity (MIC) A. baumanii ATCC 19606 (A. baumanii ATCC 19606) | Antibacterial activity (MIC) E. cloacae ATCC 13047 (E. cloacae ATCC 13047) | Antibacterial activity (MIC) K. pneumoniae NR-15410 (KPC) [2] | Antibacterial activity (MIC) E. aerogenes ATCC 13048 (E. aerogenes ATCC 13048) | Antibacterial activity (MIC) E. faecium F118 (VRE) (E. faecium F118 (VRE)) | Antibacterial activity (MIC) K. pneumoniae NR-15411 (KPC) [3] | Antibacterial activity (MIC) P. aeruginosa PA01 (P. aeruginosa PA01) | Antibacterial activity (MIC) P. aeruginosa X13273 (P. aeruginosa X13273) | Antibacterial activity (MIC) S. aureus MRSA 1094 (S. aureus MRSA 1094) | Antibacterial activity (MIC) P. aeruginosa ATCC 27853 (P. aeruginosa ATCC 27853) | Antibacterial activity (MIC) E. faecium EF1509 (VRE) (E. faecium EF1509 (VRE)) | Antibacterial activity (MIC) S. aureus HFH-30123 (MRSA) [4] | CC50% (72 h HeLa cells) (HeLa cells) |
| --- | --- | --- | --- | --- | --- | --- | --- | --- | --- | --- | --- | --- | --- | --- |
| Brc1ccc(-c2cc(/C=C/c3cc4c5c(c3)CCCN5CCC4)[o+]c(-c3ccc(Br)cc3)c2)cc1.F[B-](F)(F)F [6jc-69-5] | 32.7 ± 2 µM | >=64 | ≥ 64 µg/mL | ≥ 64 µg/mL | ≥ 64 µg/mL | 11.31 | ≥ 64 µg/mL | ≥ 64 µg/mL | >=64 | ≥ 64 µg/mL | ≥ 64 µg/mL | 6 | 64 µg/mL | 4.43 |
| CN(C)c1ccc(/C=C/C=C/c2cc(-c3ccccc3)cc(-c3ccccc3)[o+]2)cc1.F[B-](F)(F)F [6jc43-1] | 62 ± 6 µM | 45.25 | ≥ 64 µg/mL | ≥ 64 µg/mL | ≥ 64 µg/mL | 4 | ≥ 64 µg/mL | ≥ 64 µg/mL | >=64 | 4 µg/mL | ≥ 64 µg/mL | 4 | 4 µg/mL | 0.93 |
| CN(C)c1ccc(/C=C/c2cc(-c3ccc(Cl)cc3)cc(-c3ccc(Cl)cc3)[o+]2)cc1.F[B-](F)(F)F [6jc41-1] | 34 ± 4 µM | >=64 | ≥ 64 µg/mL | ≥ 64 µg/mL | ≥ 64 µg/mL | 8 | ≥ 64 µg/mL | ≥ 64 µg/mL | >=64 | 16 µg/mL | ≥ 64 µg/mL | 22.63 | 32 µg/mL | >32 |
| Cn1cc(/C=C/c2cc(-c3ccc(C(C)(C)C)cc3)cc(-c3ccc(C(C)(C)C)cc3)[o+]2)c2ccccc21.F[B-](F)(F)F [6jc66-3] | 60 ± 11 µM | >=64 | ≥ 64 µg/mL | ≥ 64 µg/mL | ≥ 64 µg/mL | 11.31 | ≥ 64 µg/mL | ≥ 64 µg/mL | >=64 | 8 µg/mL | ≥ 64 µg/mL | 4 | 8 µg/mL | 5.68 |
| Cc1ccc(-c2cc(/C=C/c3cn(C)c4ccccc34)[o+]c(-c3ccc(C)cc3)c2)cc1.F[B-](F)(F)F [6jc65-2] | 3.9 ± 0.4 µM | 32 | 64 µg/mL | 64 µg/mL | 64 µg/mL | 4 | ≥ 64 µg/mL | ≥ 64 µg/mL | >=64 | 2 µg/mL | ≥ 64 µg/mL | 2 | 2 µg/mL | 0.94 |

Continued, in another order:

| Kd [1] | Antibacterial activity (MIC) A. baumanii ATCC 19606 (A. baumanii ATCC 19606) | Antibacterial activity (MIC) E. cloacae ATCC 13047 (E. cloacae ATCC 13047) | Antibacterial activity (MIC) K. pneumoniae NR-15410 (KPC) [2] | Antibacterial activity (MIC) E. aerogenes ATCC 13048 (E. aerogenes ATCC 13048) | Antibacterial activity (MIC) E. faecium F118 (VRE) (E. faecium F118 (VRE)) | Antibacterial activity (MIC) K. pneumoniae NR-15411 (KPC) [3] | Antibacterial activity (MIC) P. aeruginosa PA01 (P. aeruginosa PA01) | Antibacterial activity (MIC) P. aeruginosa X13273 (P. aeruginosa X13273) | Antibacterial activity (MIC) S. aureus MRSA 1094 (S. aureus MRSA 1094) | Antibacterial activity (MIC) P. aeruginosa ATCC 27853 (P. aeruginosa ATCC 27853) | Antibacterial activity (MIC) E. faecium EF1509 (VRE) (E. faecium EF1509 (VRE)) | Antibacterial activity (MIC) S. aureus HFH-30123 (MRSA) [4] | Compound | CC50% (72 h HeLa cells) (HeLa cells) |
| --- | --- | --- | --- | --- | --- | --- | --- | --- | --- | --- | --- | --- | --- | --- |
| 1.6 ± 0.2 µM | 64 | ≥ 64 µg/mL | 64 µg/mL | ≥ 64 µg/mL | 5.66 | ≥ 64 µg/mL | ≥ 64 µg/mL | >=64 | 4 µg/mL | ≥ 64 µg/mL | 4 | 4 µg/mL | CCc1ccc(-c2cc(/C=C/c3cn(C)c4ccccc34)[o+]c(-c3ccc(CC)cc3)c2)cc1.F[B-](F)(F)F [6jc66-2] | 1.42 |
| 4.92 ± 0.5 µM | >=64 | 64 µg/mL | 64 µg/mL | ≥ 64 µg/mL | 8 | 64 µg/mL | ≥ 64 µg/mL | >=64 | 5.66 µg/mL | ≥ 64 µg/mL | 8 | 4 µg/mL | CCc1ccc(-c2cc(/C=C/c3c[nH]c4ccccc34)[o+]c(-c3ccc(CC)cc3)c2)cc1.F[B-](F)(F)F [6jc64-3] | 3.29 |
| 27.9 ± 2 µM | 64 | ≥ 64 µg/mL | 64 µg/mL | ≥ 64 µg/mL | 4 | ≥ 64 µg/mL | ≥ 64 µg/mL | >=64 | 2 µg/mL | ≥ 64 µg/mL | 2 | 2 µg/mL | Cc1ccc(-c2cc(/C=C/c3cn(C)c4ccccc34)[o+]c(-c3ccc(C)c(C)c3)c2)cc1C.F[B-](F)(F)F [6jc66-4] | 0.92 |
| 17 ± 4 µM | 8 | 64 µg/mL | 45.3 µg/mL | 32 µg/mL | 4 | 64 µg/mL | 64 µg/mL | 32 | 1.41 µg/mL | 64 µg/mL | 4 | 2 µg/mL | C(=C\c1cc(-c2ccccc2)cc(-c2ccccc2)[o+]1)/c1cc2c3c(c1)CCCN3CCC2.F[B-](F)(F)F [6jc-58] | <.78125 |
